One assay has as its target T1, 5-HT4 (Homo sapiens, UniProt Q13639).
T1 construct: expressed in transfected cells
In words: Radioligand receptor binding assay, 5-HT4. Here is the method: (§1) [^3H] […] The reactions are incubated at room temperature for 3 hr. and then counted in a Trilux Microbeta™ scintillation counter to detect receptor-bound radioligand. Binding data is analyzed by computer-assisted 4 parameter fit analysis (ID Business Solutions Ltd, Guildford, Surrey, UK). […]
(§2) Affinity for other serotonin receptor subtypes as well as for alpha 1 & 2 adrenergic receptors can readily be determined by modification of the above described radioligand receptor binding assay using membranes derived from cells stably expressing the desired receptor subtype including the 5-HT1A, 5-HT1B, and 5-HT1D subtypes, as well as the 5-HT2A, 5-HT2B, 5-HT2C, 5-HT4, 5-HT5, and 5-HT6 receptor subtypes. […] The binding affinities of compounds of the present invention may be determined at these additional receptor types and are found to generally have selectivity ratios ≧2.0 against other serotonergic receptors. […]

The next assay has as its target T2, 5-HT2C (Homo sapiens, UniProt P28335).
T2 construct: expressed in transfected cells
T2 sequence (P28335 33-458): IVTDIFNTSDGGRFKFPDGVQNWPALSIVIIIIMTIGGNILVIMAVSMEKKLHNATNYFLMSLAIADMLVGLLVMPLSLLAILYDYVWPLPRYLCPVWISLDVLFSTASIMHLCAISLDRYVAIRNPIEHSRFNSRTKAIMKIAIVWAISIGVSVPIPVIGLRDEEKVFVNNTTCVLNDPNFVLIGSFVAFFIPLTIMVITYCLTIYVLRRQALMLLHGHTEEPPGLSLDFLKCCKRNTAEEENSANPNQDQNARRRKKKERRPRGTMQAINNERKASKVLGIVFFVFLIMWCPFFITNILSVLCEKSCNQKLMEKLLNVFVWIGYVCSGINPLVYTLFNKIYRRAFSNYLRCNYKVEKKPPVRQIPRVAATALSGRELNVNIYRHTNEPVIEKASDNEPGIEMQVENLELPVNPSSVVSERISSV
In words: Radioligand receptor binding assay, 5-HT2C. On the procedure:
as §1, §2

The next assay has as its target T3, 5-HT5 (Homo sapiens, UniProt P47898).
T3 construct: expressed in transfected cells
In words: Radioligand receptor binding assay, 5-HT5. On the procedure:
as §1, §2

For a further assay, the target named is T4, 5-HT2A (Homo sapiens, UniProt P28223).
T4 construct: expressed in transfected cells
In words: Radioligand receptor binding assay, 5-HT2A. On the procedure:
as §1, §2

A further assay has as its target T5, 5-HT1A (Homo sapiens, UniProt P08908).
T5 construct: expressed in transfected cells
T5 sequence (P08908 1-422): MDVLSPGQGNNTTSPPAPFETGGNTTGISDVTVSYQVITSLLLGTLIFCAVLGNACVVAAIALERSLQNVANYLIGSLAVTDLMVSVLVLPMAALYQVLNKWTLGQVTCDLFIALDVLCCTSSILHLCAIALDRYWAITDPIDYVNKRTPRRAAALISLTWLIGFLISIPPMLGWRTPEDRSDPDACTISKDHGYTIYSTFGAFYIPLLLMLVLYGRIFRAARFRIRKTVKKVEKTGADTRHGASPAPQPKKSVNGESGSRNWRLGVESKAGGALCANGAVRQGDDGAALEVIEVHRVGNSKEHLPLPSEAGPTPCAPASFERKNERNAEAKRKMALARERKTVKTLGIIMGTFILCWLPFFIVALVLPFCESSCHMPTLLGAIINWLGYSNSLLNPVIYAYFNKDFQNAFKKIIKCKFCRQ
Nature of the assay: Radioligand receptor binding assay, 5-HT1A. Here is the method: as §1, §2

A further assay deals with T6, 5-HT1D (Homo sapiens, UniProt P28221).
T6 construct: expressed in transfected cells
In words: Radioligand receptor binding assay, 5-HT1D. Here is the method:
as §1, §2

Assay [1] concerns the target T7, alpha 1 adrenergic.
T7 construct: Ki; other: alpha 1 adrenergic (first line, r12)
Nature of the assay: Radioligand receptor binding assay, alpha 1 adrenergic (first line). Conditions: alpha 1 adrenergic (first line, r12). On the procedure:
as §1, §2

Another assay concerns the target T8, 5-HT2B (Homo sapiens, UniProt P41595).
T8 construct: expressed in transfected cells
In words: Radioligand receptor binding assay, 5-HT2B. Here is the method:
as §1, §2

In another assay the target is T9, 5-HT6 (Homo sapiens, UniProt P50406).
T9 construct: expressed in transfected cells
Nature of the assay: Radioligand receptor binding assay, 5-HT6. On the procedure:
as §1, §2

In the next assay the target is T10, 5-HT1B (Homo sapiens, UniProt P28222).
T10 construct: expressed in transfected cells
In words: Radioligand receptor binding assay, 5-HT1B. On the procedure: as §1, §2

Assay [2] concerns the target T11, alpha 1 adrenergic.
T11 construct: Ki; other: alpha 1 adrenergic (second line, r13)
In words: Radioligand receptor binding assay, alpha 1 adrenergic (second line). Conditions: alpha 1 adrenergic (second line, r13). On the procedure: as §1, §2

For another assay, the target named is T12, 5-HT7 receptor (Homo sapiens, UniProt P34969).
T12 construct: expressed in transfected cells; host or cells: AV-12 cells
Nature of the assay: 5-HT7 receptor affinity: radioligand binding assay ([3H]5-HT, SPA). Conditions: [3H]5-HT competition binding. Here is the method:
Membranes for affinity and antagonist activity assays are prepared essentially as follows. AV-12 cells, stably expressing the 5-HT7 receptor, are grown as a monolayer in 5×T-150 flasks in DMEM/F12 (3:1) 5% FBS, 20 mM HEPES, […], […]. After growing to 90% confluence the media is removed and replaced with Hybritech media containing 2% horse serum, […] dextran sulfate, 1 mg/mL nucellin, 1 mg/mL human transferrin (partially iron saturated), […], 20 mM HEPES, […] geneticin, 0.04% pluronic F68. The cells are grown overnight to condition the media. The next morning the conditioned media (˜150 mL total) is removed and set aside in a sterile container. The cells are trypsinized and collected in the conditioned media. Fresh suspension media is added to bring the total volume to 500 mL and a cell density of 5×10^5 cells/mL. […]
To prepare membranes, the above pellets are resuspended in ice-cold Tris buffer (20 mM Tris HCl, pH 7.4 at 23° C., 5 mM EDTA) and homogenized with a Wheaton tissue grinder. […] Protein concentrations are determined by the method of Bradford. […]
as §1

Where “and” joins values, the source holds several entries; their conditions need not be identical. Identical values can stand only once.

By Ki is commonly meant a measure of affinity in units of concentration, obtained from inhibition or displacement.

T12 sequence (P34969 whole entry): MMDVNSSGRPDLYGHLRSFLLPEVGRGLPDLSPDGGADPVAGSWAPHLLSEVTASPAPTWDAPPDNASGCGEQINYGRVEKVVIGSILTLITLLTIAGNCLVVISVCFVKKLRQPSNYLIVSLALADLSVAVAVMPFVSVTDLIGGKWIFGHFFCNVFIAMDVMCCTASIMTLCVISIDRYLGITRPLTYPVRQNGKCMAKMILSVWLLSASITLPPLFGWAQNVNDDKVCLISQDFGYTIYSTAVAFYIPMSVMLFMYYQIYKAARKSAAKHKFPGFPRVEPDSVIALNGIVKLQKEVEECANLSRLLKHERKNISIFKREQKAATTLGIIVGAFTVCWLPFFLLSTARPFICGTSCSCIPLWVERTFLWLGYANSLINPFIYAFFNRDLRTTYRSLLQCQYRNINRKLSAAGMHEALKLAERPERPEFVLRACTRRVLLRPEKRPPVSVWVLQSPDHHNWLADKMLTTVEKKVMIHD
T6 sequence (P28221 whole entry, species assumed): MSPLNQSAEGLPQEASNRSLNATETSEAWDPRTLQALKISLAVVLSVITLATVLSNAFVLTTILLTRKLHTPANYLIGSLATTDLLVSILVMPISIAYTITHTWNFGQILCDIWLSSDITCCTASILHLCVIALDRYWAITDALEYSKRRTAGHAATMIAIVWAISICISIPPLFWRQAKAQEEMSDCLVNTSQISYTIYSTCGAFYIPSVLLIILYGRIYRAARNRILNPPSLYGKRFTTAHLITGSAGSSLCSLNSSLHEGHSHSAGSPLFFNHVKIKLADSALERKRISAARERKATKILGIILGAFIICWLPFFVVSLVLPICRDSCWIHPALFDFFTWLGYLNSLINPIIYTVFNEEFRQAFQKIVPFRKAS
T9 sequence (P50406 whole entry, species assumed): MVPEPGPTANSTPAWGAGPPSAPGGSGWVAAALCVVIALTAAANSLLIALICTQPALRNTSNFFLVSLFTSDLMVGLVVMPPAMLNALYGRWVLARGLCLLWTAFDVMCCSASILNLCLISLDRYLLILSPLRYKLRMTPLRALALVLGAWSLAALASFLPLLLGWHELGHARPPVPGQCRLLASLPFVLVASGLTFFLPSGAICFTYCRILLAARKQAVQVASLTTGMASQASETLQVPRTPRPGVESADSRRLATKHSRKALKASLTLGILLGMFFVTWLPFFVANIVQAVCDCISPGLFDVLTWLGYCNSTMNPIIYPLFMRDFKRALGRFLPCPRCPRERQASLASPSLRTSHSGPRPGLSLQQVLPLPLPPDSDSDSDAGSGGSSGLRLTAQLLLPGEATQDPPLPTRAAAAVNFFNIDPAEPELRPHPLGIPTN
T4 sequence (P28223 whole entry, species assumed): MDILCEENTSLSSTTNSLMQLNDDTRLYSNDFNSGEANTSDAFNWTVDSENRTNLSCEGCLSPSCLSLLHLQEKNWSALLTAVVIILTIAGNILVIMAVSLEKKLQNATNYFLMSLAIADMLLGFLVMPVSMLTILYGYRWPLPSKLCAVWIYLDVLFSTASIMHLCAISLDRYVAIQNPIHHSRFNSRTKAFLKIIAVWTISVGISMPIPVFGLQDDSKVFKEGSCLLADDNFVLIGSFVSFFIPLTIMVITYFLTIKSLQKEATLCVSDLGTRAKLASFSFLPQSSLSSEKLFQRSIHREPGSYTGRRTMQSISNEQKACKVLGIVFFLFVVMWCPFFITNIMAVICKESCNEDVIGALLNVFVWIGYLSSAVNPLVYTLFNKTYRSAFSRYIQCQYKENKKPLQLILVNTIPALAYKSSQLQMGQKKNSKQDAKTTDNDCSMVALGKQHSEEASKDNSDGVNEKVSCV
T10 sequence (P28222 whole entry, species assumed): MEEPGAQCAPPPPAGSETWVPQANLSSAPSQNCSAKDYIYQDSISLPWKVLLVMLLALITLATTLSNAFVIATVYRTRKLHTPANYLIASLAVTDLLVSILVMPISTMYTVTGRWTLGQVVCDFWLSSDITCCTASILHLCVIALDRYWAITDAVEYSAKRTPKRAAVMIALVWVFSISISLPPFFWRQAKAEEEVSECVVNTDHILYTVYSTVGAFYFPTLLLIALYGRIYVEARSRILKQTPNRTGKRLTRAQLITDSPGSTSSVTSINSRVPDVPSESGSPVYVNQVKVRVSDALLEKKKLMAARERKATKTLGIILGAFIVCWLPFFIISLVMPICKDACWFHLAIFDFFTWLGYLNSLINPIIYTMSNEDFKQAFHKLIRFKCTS
T8 sequence (P41595 whole entry, species assumed): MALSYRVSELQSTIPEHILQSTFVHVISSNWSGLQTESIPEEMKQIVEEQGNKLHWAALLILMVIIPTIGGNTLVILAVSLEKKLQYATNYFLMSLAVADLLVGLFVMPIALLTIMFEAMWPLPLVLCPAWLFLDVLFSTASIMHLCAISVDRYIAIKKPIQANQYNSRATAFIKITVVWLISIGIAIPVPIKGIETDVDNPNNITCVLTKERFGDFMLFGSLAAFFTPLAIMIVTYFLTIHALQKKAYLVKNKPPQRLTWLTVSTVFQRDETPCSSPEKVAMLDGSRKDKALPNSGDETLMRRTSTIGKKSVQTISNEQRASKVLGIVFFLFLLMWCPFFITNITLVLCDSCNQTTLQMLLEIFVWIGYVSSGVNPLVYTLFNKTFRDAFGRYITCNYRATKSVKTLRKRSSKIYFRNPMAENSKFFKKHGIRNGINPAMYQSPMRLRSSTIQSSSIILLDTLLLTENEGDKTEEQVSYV
T1 sequence (Q13639 whole entry, species assumed): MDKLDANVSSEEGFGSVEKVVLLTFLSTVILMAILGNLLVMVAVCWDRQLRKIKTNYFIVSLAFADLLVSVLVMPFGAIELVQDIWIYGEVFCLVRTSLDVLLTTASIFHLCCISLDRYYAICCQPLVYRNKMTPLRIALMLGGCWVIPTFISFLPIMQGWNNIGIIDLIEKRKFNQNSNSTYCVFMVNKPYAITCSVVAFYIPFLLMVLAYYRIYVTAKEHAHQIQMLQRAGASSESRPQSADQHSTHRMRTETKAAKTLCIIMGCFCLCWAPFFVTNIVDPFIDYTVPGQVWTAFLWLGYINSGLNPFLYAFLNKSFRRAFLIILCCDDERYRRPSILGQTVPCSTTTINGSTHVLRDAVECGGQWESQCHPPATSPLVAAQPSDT
T3 sequence (P47898 whole entry, species assumed): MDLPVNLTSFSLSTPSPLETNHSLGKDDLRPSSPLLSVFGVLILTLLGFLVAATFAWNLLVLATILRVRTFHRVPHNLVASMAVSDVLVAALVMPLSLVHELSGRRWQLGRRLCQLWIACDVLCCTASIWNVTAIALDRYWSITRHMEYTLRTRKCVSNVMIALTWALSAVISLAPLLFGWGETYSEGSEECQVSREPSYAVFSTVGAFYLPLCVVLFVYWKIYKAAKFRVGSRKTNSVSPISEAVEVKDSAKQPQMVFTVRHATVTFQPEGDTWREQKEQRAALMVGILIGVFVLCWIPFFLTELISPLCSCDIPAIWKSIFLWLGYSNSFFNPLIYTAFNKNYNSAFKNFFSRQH

As to `Cn1cc(CN2CCN(c3nccnc3-c3cccc(F)c3F)CC2)cn1` [Example 142, 4-(1-Methyl-1H-pyrazol-4-ylmethyl)-3′-(2,3-difluorophenyl)-3,4,5,6-tetrahydro-2H-[1,2′]bipyrazine], the Ki was > 6310 nM on 5-HT4; > 8200 nM at 5-HT2C; > 7020 nM at 5-HT5; > 7470 nM at 5-HT2A; 1250 nM at 5-HT1A; > 2400 nM on 5-HT1D. Further, the Ki on alpha 1 adrenergic [1] was > 1440 nM; at 5-HT2B, > 3160 nM; on 5-HT6, > 1790 nM; at 5-HT1B, > 3580 nM; on alpha 1 adrenergic [2], 933 nM; on 5-HT7 receptor, ~44 nM and 44 nM.
